Reference: patent publication US20250339450A1, “TREATMENT OF SYNGAP1 ENCEPHALOPATHY” (Harmony Biosciences Management, Inc., priority 2019, published 2025)

Tested on: patients with SYNGAP1
Assay: Four patients with SYNGAP1 in Study ZYN2-CL-025 (BELIEVE)
Format: in vivo, human
Details: SYNGAP1 encephalopathy patients; across the 26-week treatment period; transdermal
Text: The trial summarized in the examples—a Phase 2 open label clinical trial—assessed the safety and efficacy of transdermal administration of CBD in a heterogeneous group of SYNGAP1 encephalopathy and other rare developmental and epileptic encephalopathies (DEEs), including but not limited to Dravet Syndrome (DS) and Lennox-Gastaut Syndrome (LGS). Some of the most common and debilitating SYNGAP1 encephalopathy seizure types are focal impaired-awareness and convulsive seizures. Patients with SYNGAP1 encephalopathy who experienced these seizure types, such as SYNGAP1 seizures, experienced seizure reductions of up to 73% across the 26-week treatment period. Qualitative assessments by caregivers in the study indicate improved behavioral problems including improved mood, engagement with others, learning ability, alertness, school attendance, as well as cognitive symptoms.
This was a sequential, multi-stage, open-label, multi-national, multiple-center, multiple-dose study to assess the long-term safety and tolerability of ZYN002 (transdermal CBD gel) in child and adolescent epilepsy patients from 3 to 18 years of age having seizures associated with developmental and epileptic encephalopathies (DEE) according to the International League Against Epilepsy (ILEA) classification (Scheffer et al. 2017). […]

For `C=C(C)C1CCC(C)=CC1c1c(O)cc(CCCCC)cc1O` (stereo not shown) [CBD, 2-[3-methyl-6-(1-methylethenyl)-2-cyclohexen-1-yl]-5-pentyl-1,3-benzenediol], the seizure reductions was “up to 73%”.
